According to ChEMBL document CHEMBL1201862, “PubChem BioAssay data set” (2004):
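These data come from cells grown in 96-well plates and exposed to compound for 48 hours at five concentrations. At the GI50, growth is halved.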 Calls of active or inactive are those of the source. Rule as the data show it: active = GI50 up to about 1.1 µM and inactive = higher.

What was measured:
Assay in all cases: inhibition of tumour cell growth, NCI panel, 48 h
NCI-H460 = test system: NCI-H460
LOX IMVI = test system: LOX IMVI
K562 = test system: K562
MCF7 = test system: MCF7
SF-268 = test system: SF-268
SN12C = test system: SN12C
OVCAR-3 = test system: OVCAR-3
SK-MEL-5 = test system: SK-MEL-5
NCI-H23 = test system: NCI-H23
MOLT-4 = test system: MOLT-4
HL-60 = test system: HL-60
SK-MEL-28 = test system: SK-MEL-28
EKVX = test system: EKVX
ACHN = test system: ACHN
Hs-578T = test system: Hs-578T
NCI/ADR-RES = test system: NCI/ADR-RES
DLD-1 = test system: DLD-1
NCI-H522 = test system: NCI-H522
CCRF-CEM = test system: CCRF-CEM
SF-539 = test system: SF-539

Measured: GI50

COc1ccc(Cc2cc(OC)c(OC)c(OC)c2)cc1O
inactive: EKVX 24.7 µM
active: NCI-H460 0.0841 µM | LOX IMVI 0.0547 µM | K562 0.0161 µM | MCF7 0.0244 µM | SF-268 0.122 µM | SN12C 0.173 µM | OVCAR-3 0.0365 µM | SK-MEL-5 0.0215 µM | NCI-H23 0.101 µM | MOLT-4 0.0211 µM | HL-60 0.0235 µM | SK-MEL-28 < 0.0169 µM | ACHN 0.167 µM | Hs-578T 0.0137 µM | NCI/ADR-RES < 0.01 µM | DLD-1 0.207 µM | NCI-H522 0.12 µM | CCRF-CEM 0.0177 µM | SF-539 0.0334 µM

O=C(c1ccccc1)C1N=NN(Cc2ccccc2[N+](=O)[O-])C1C(=O)c1ccccc1 (stereo unspecified)
inactive: NCI-H460 > 100 µM | LOX IMVI > 100 µM | K562 > 100 µM | SF-268 > 100 µM | OVCAR-3 > 100 µM | SK-MEL-5 > 100 µM | NCI-H23 > 100 µM | MOLT-4 > 100 µM | HL-60 > 100 µM | SK-MEL-28 > 100 µM | EKVX > 100 µM | ACHN > 100 µM | DLD-1 > 100 µM | NCI-H522 > 100 µM | CCRF-CEM > 100 µM

O=C1C2C(C(=O)N1c1ccccc1)C1([N+](=O)[O-])C=C3c4ccccc4N(C(=O)c4ccccc4)C32C2C(=O)N(c3ccccc3)C(=O)C21 (stereo unspecified)
inactive: NCI-H460 > 100 µM | LOX IMVI > 100 µM | K562 > 100 µM | SF-268 > 100 µM | SN12C > 100 µM | OVCAR-3 > 100 µM | NCI-H23 > 100 µM | MOLT-4 > 100 µM | HL-60 > 100 µM | SK-MEL-28 > 100 µM | ACHN > 100 µM | DLD-1 > 100 µM | NCI-H522 > 100 µM | CCRF-CEM > 100 µM | SF-539 > 10 µM

CC1CCCC(C(O)CC2CC(=O)N(c3ccccc3)C(=O)C2)C1=O (stereo unspecified)
inactive: NCI-H460 > 100 µM | LOX IMVI > 100 µM | K562 > 100 µM | SF-268 > 100 µM | SN12C > 100 µM | OVCAR-3 > 100 µM | NCI-H23 > 100 µM | MOLT-4 > 100 µM | HL-60 > 100 µM | SK-MEL-28 > 100 µM | EKVX > 100 µM | ACHN > 100 µM | DLD-1 > 100 µM | NCI-H522 > 100 µM | CCRF-CEM > 100 µM | SF-539 > 100 µM

C\C=C/C=C/C=C/C(=O)O
inactive: NCI-H460 > 100 µM | LOX IMVI > 100 µM | K562 > 100 µM | SF-268 > 100 µM | SN12C > 100 µM | OVCAR-3 > 100 µM | SK-MEL-5 > 100 µM | NCI-H23 > 100 µM | MOLT-4 > 100 µM | HL-60 > 100 µM | SK-MEL-28 > 100 µM | EKVX 67.3 µM | ACHN > 100 µM | DLD-1 > 100 µM | NCI-H522 > 100 µM | CCRF-CEM > 100 µM | SF-539 > 100 µM

O=[N+]([O-])c1ccc(-n2nnc(C3=NCCN3)c2-c2ccccc2)cc1
inactive: NCI-H460 > 100 µM | LOX IMVI > 100 µM | K562 > 100 µM | SF-268 > 100 µM | SN12C > 100 µM | OVCAR-3 > 100 µM | SK-MEL-5 > 100 µM | NCI-H23 > 100 µM | MOLT-4 > 100 µM | HL-60 > 100 µM | SK-MEL-28 > 100 µM | EKVX > 100 µM | ACHN > 100 µM | DLD-1 > 100 µM | NCI-H522 > 100 µM | CCRF-CEM > 100 µM | SF-539 > 100 µM

N#CC1=C(Cl)NC(Cl)=C(C#N)C1c1ccc(Cl)cc1
inactive: NCI-H460 17 µM | LOX IMVI 16.1 µM | K562 11.9 µM | SF-268 18.7 µM | SN12C 16.9 µM | OVCAR-3 14 µM | SK-MEL-5 17 µM | NCI-H23 17.9 µM | MOLT-4 18.7 µM | HL-60 18.5 µM | SK-MEL-28 22.9 µM | EKVX 19.5 µM | ACHN 17.7 µM | DLD-1 17.7 µM | NCI-H522 13 µM | CCRF-CEM 25 µM | SF-539 18.1 µM

CCOc1ccccc1NC(=O)C1=C(C)NC(C)=C(C(=O)Nc2ccccc2OCC)C1c1cccc([N+](=O)[O-])c1
inactive: NCI-H460 87.9 µM | LOX IMVI 66.8 µM | K562 28.2 µM | SF-268 > 100 µM | SN12C > 100 µM | OVCAR-3 80.9 µM | SK-MEL-5 32.1 µM | NCI-H23 > 100 µM | MOLT-4 11.8 µM | HL-60 30.5 µM | SK-MEL-28 > 100 µM | EKVX 30.1 µM | ACHN 29.9 µM | DLD-1 46.8 µM | NCI-H522 22.4 µM | CCRF-CEM 37.9 µM | SF-539 40.2 µM

CC(=O)CC(=O)N(CCN(C(=O)CC(C)=O)c1ccccc1)c1ccccc1
inactive: NCI-H460 > 100 µM | LOX IMVI > 100 µM | K562 > 100 µM | SF-268 > 100 µM | SN12C > 100 µM | OVCAR-3 > 100 µM | SK-MEL-5 > 100 µM | NCI-H23 > 100 µM | MOLT-4 > 100 µM | HL-60 43.4 µM | SK-MEL-28 > 100 µM | EKVX > 100 µM | ACHN > 100 µM | DLD-1 > 100 µM | NCI-H522 84.7 µM | CCRF-CEM 58.2 µM | SF-539 > 100 µM

COc1cc2c(cc1OC)C1c3ccccc3C(C#N)(C2)N(C(=O)c2ccccc2)C1O (stereo unspecified)
inactive: NCI-H460 59.7 µM | LOX IMVI > 100 µM | K562 36.5 µM | SF-268 > 100 µM | SN12C > 100 µM | OVCAR-3 52.1 µM | SK-MEL-5 30.7 µM | NCI-H23 84.5 µM | MOLT-4 35.2 µM | HL-60 42.3 µM | SK-MEL-28 > 100 µM | EKVX 75 µM | ACHN 50 µM | DLD-1 74.1 µM | NCI-H522 21.3 µM | CCRF-CEM 52.1 µM | SF-539 > 100 µM

Fc1cccc(/C=N/C23CC4CC(CC(C4)C2)C3)c1
inactive: NCI-H460 > 100 µM | LOX IMVI > 100 µM | K562 > 100 µM | SF-268 > 100 µM | SN12C > 100 µM | OVCAR-3 > 100 µM | NCI-H23 > 100 µM | MOLT-4 > 100 µM | HL-60 > 100 µM | SK-MEL-28 > 100 µM | EKVX > 100 µM | ACHN > 100 µM | DLD-1 > 100 µM | NCI-H522 > 100 µM | CCRF-CEM > 100 µM | SF-539 > 100 µM

Clc1ccc(OCc2nnc3n2N=C(c2ccccc2)CS3)cc1
inactive: NCI-H460 16.8 µM | LOX IMVI 17 µM | K562 12.7 µM | SF-268 14.3 µM | SN12C 11.7 µM | OVCAR-3 16.9 µM | NCI-H23 12.2 µM | MOLT-4 9.68 µM | HL-60 13 µM | SK-MEL-28 21.8 µM | ACHN 10.9 µM | DLD-1 16.5 µM | NCI-H522 17.4 µM | SF-539 18.2 µM

COC(=O)[C@@]12C(=O)C=CC(=O)[C@@H]1C1C(=CC2COC(C)=O)O[C@@H]2OC3(CCCCC3)O[C@H]12 (stereo partly specified)
inactive: NCI-H460 16.9 µM | LOX IMVI 9.95 µM | K562 4.15 µM | MCF7 14.1 µM | SF-268 14.2 µM | SN12C 15.5 µM | OVCAR-3 6.37 µM | SK-MEL-5 18 µM | NCI-H23 17.1 µM | MOLT-4 3.29 µM | HL-60 2.89 µM | SK-MEL-28 17.2 µM | EKVX 15.4 µM | ACHN 9.04 µM | Hs-578T 9.46 µM | NCI/ADR-RES 12.8 µM | DLD-1 9.68 µM | NCI-H522 2.21 µM | CCRF-CEM 8.13 µM | SF-539 10.4 µM

CCN(c1n[n+]2c(-c3ccccc3)csc2s1)c1n[n+]2c(-c3ccccc3)csc2s1
inactive: NCI-H460 53.1 µM | LOX IMVI 57.9 µM | K562 17.5 µM | SF-268 > 100 µM | SN12C > 100 µM | OVCAR-3 71.8 µM | SK-MEL-5 38 µM | NCI-H23 44.6 µM | MOLT-4 37.5 µM | HL-60 22.3 µM | SK-MEL-28 79.1 µM | EKVX > 100 µM | ACHN > 100 µM | DLD-1 > 100 µM | NCI-H522 35.6 µM | CCRF-CEM 32.5 µM | SF-539 > 100 µM

Cc1c(C(=O)/C=C/c2ccccc2)[n+]([O-])c2ccccc2[n+]1[O-]
inactive: NCI-H460 17.6 µM | LOX IMVI 14.5 µM | K562 15.6 µM | SF-268 19.7 µM | SN12C 13.8 µM | OVCAR-3 15.1 µM | NCI-H23 15.7 µM | MOLT-4 21.3 µM | HL-60 13.9 µM | SK-MEL-28 16.7 µM | EKVX 14.9 µM | ACHN 17.7 µM | DLD-1 14.2 µM | NCI-H522 6.62 µM | CCRF-CEM 22.2 µM | SF-539 15.5 µM
